# Reference: patent US20080306076A1, “MODULATION OF CHEMOSENSORY RECEPTORS AND LIGANDS ASSOCIATED THEREWITH” (SENOMYX, INC., priority 2007, published 2008)
# Where a chain is given by its changes, count along the chain named.
# Columns and labels:
# hT1R1 D192A = target: T1, hT1R1 D192A (Homo sapiens, UniProt Q7RTX1, D192A); assay: Mutagenesis study, hT1R1 mutant D192A; format: cell-based; details: D192 mutant, FIG. 11
# T1 construct: expressed in transfected cells; host or cells: HEK293, transient transfection
# T1 sequence (Q7RTX1 21-841 D192A): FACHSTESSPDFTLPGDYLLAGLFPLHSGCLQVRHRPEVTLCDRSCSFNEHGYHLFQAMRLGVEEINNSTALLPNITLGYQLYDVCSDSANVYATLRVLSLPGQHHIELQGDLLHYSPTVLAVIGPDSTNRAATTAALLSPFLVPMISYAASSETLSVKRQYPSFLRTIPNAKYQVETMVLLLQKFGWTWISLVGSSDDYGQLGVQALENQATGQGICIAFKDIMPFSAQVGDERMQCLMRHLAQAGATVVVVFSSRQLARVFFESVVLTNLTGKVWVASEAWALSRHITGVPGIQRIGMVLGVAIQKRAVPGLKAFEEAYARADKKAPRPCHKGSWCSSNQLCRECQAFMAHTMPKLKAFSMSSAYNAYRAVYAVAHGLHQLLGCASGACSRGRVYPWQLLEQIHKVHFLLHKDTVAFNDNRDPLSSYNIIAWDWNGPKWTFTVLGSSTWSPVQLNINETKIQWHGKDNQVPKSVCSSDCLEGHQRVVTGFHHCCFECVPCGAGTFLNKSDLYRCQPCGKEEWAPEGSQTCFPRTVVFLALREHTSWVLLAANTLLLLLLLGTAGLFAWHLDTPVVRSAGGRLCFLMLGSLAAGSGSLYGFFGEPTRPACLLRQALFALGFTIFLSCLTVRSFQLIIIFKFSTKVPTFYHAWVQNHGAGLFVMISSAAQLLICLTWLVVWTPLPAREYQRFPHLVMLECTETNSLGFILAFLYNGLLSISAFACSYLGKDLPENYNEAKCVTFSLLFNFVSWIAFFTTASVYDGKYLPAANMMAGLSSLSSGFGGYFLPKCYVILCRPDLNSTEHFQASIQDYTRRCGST
# T1 sequence (Q923K1 21-858 partner): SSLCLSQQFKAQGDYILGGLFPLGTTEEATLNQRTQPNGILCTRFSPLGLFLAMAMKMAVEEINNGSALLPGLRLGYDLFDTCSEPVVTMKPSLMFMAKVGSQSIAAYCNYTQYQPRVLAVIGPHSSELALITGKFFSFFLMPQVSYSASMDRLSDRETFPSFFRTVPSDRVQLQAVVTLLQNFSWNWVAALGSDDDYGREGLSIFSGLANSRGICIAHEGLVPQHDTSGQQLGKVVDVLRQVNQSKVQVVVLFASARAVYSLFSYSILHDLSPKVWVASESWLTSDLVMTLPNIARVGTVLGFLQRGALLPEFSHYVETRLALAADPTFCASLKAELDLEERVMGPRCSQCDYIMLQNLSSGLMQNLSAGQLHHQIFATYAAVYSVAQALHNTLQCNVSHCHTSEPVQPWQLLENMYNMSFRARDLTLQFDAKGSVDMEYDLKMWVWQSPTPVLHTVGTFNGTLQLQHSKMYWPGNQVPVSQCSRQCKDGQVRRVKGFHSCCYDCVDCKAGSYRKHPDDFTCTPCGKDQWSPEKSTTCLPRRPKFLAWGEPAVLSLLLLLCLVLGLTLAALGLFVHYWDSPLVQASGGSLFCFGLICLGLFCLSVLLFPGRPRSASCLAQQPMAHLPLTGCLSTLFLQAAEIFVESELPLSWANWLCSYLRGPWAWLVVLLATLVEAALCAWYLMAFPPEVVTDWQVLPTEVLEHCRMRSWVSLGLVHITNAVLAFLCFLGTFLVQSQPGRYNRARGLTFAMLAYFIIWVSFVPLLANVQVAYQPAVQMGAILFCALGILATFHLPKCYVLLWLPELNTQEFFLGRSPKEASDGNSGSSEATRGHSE
# Source text: (§1) In order to further define the interaction sites of umami stimuli, we performed site-directed mutagenesis on human T1R1 VFT. The mutagenesis was done using the routine PCR-based method. […] were transiently transfected into HEK293 cell together with the rat T1R3 wild type cDNA, and the transfected cells were characterized using an automated FLIPR machine or a calcium imaging system as described in our previous patent applications.
# hT1R1 Y220A = target: T2, hT1R1 Y220A (Homo sapiens, UniProt Q7RTX1, Y220A); assay: Mutagenesis study, hT1R1 mutant Y220A; format: cell-based; details: Y220 mutant, FIG. 11
# T2 construct: expressed in transfected cells; host or cells: HEK293, transient transfection
# T2 sequence (Q7RTX1 21-841 Y220A): T1 sequence (Q7RTX1 21-841 D192A) with A172D, Y200A
# T2 sequence (Q923K1 21-858 partner): T1 sequence (Q923K1 21-858 partner)
# Source text: as §1
structure (smiles),measurement,setting,value
"N[C@@H](CCC(=O)O)C(=O)O [L-Glu, L-glutamate]",activity against L-Glu,hT1R1 D192A,significant reduced activity
same,activity against L-Glu,hT1R1 Y220A,significant reduced activity
